Measured values from ChEMBL document CHEMBL1201862, “PubChem BioAssay data set” (2004).
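Results reflect a 48-hour exposure of cells in 96-well plates to compound at five concentrations. Here, GI50 denotes the concentration required for 50% inhibition of growth.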 Calls of active or inactive are those of the source. No stated cut-off is given here; in the data, active = GI50 up to about 1.1 µM and inactive = higher.

How the values were obtained:
Assay in all cases: growth of human tumour cells (NCI), 48 h
SNB-78 = system: SNB-78
SF-295 = system: SF-295
SK-MEL-5 = system: SK-MEL-5
TK-10 = system: TK-10
NCI-H23 = system: NCI-H23
DMS-114 = system: DMS-114
OVCAR-4 = system: OVCAR-4
DMS-273 = system: DMS-273
Malme-3M = system: Malme-3M
MOLT-4 = system: MOLT-4
DLD-1 = system: DLD-1
786-0 = system: 786-0
UACC-257 = system: UACC-257
SK-MEL-28 = system: SK-MEL-28

## CN(c1ccccc1)c1cc2ccccc2nn1
SNB-78
  GI50: > 100 µM (inactive)
SF-295
  GI50: 67.9 µM (inactive)
SK-MEL-5
  GI50: 43.2 µM (inactive)
TK-10
  GI50: > 100 µM (inactive)
NCI-H23
  GI50: > 100 µM (inactive)
DMS-114
  GI50: 52.2 µM (inactive)
OVCAR-4
  GI50: > 100 µM (inactive)
DMS-273
  GI50: > 100 µM (inactive)
Malme-3M
  GI50: 87.1 µM (inactive)
MOLT-4
  GI50: 52.7 µM (inactive)
DLD-1
  GI50: > 100 µM (inactive)
786-0
  GI50: > 100 µM (inactive)
UACC-257
  GI50: > 100 µM (inactive)
SK-MEL-28
  GI50: > 100 µM (inactive)

## COc1ccc(/C=C2/C[N+](C)(C)C/C(=C/c3ccc(OC)cc3)C2=O)cc1
SNB-78
  GI50: 38.5 µM (inactive)
SF-295
  GI50: > 77.1 µM (inactive)
SK-MEL-5
  GI50: 23.4 µM (inactive)
TK-10
  GI50: > 100 µM (inactive)
NCI-H23
  GI50: 56 µM (inactive)
DMS-114
  GI50: 13.4 µM (inactive)
OVCAR-4
  GI50: 36 µM (inactive)
DMS-273
  GI50: 18.3 µM (inactive)
Malme-3M
  GI50: 22.5 µM (inactive)
MOLT-4
  GI50: 16.7 µM (inactive)
DLD-1
  GI50: 28.7 µM (inactive)
786-0
  GI50: 34.7 µM (inactive)
UACC-257
  GI50: 29.4 µM (inactive)
SK-MEL-28
  GI50: 12.9 µM (inactive)

## CC(=O)OC1=C2CC3(C)OC(=O)CC(C)(C)C3=CC=C2C=C(C(C)C)C1=O (centres undefined)
SNB-78
  GI50: 0.282 µM (active)
SF-295
  GI50: 1.66 µM (inactive)
SK-MEL-5
  GI50: 0.826 µM (active)
TK-10
  GI50: 1.21 µM (inactive)
NCI-H23
  GI50: 0.42 µM (active)
DMS-114
  GI50: 0.366 µM (active)
OVCAR-4
  GI50: 0.299 µM (active)
DMS-273
  GI50: 0.916 µM (active)
Malme-3M
  GI50: 0.356 µM (active)
MOLT-4
  GI50: 0.294 µM (active)
DLD-1
  GI50: 0.203 µM (active)
786-0
  GI50: 0.203 µM (active)
UACC-257
  GI50: 0.49 µM (active)
SK-MEL-28
  GI50: 0.456 µM (active)

## O=C1C=Cc2ncccc2C1=O
SNB-78
  GI50: 31 µM (inactive)
SF-295
  GI50: 17.6 µM (inactive)
SK-MEL-5
  GI50: 14.9 µM (inactive)
TK-10
  GI50: > 44.9 µM (inactive)
NCI-H23
  GI50: 20.3 µM (inactive)
DMS-114
  GI50: 16.5 µM (inactive)
OVCAR-4
  GI50: 5.77 µM (inactive)
DMS-273
  GI50: 17 µM (inactive)
Malme-3M
  GI50: 29.9 µM (inactive)
MOLT-4
  GI50: 2.45 µM (inactive)
DLD-1
  GI50: 18.7 µM (inactive)
786-0
  GI50: 15.7 µM (inactive)
UACC-257
  GI50: 20 µM (inactive)
SK-MEL-28
  GI50: 24.4 µM (inactive)

## Cc1cc2c(cc1C)[n+]([O-])c(C(=O)/C=C/c1ccc(Cl)cc1)c(C)[n+]2[O-]
SNB-78
  GI50: > 100 µM (inactive)
SF-295
  GI50: 22 µM (inactive)
SK-MEL-5
  GI50: 23.7 µM (inactive)
TK-10
  GI50: 22.2 µM (inactive)
NCI-H23
  GI50: 20.7 µM (inactive)
DMS-114
  GI50: 29.1 µM (inactive)
OVCAR-4
  GI50: 33.7 µM (inactive)
DMS-273
  GI50: 33.1 µM (inactive)
Malme-3M
  GI50: 38.5 µM (inactive)
MOLT-4
  GI50: 23.8 µM (inactive)
DLD-1
  GI50: 28.8 µM (inactive)
786-0
  GI50: 18.9 µM (inactive)
UACC-257
  GI50: 27.3 µM (inactive)
SK-MEL-28
  GI50: 23.2 µM (inactive)

## O=C(Nc1ccccc1Br)c1cccc([N+](=O)[O-])c1O
SNB-78
  GI50: 5.09 µM (inactive)
SF-295
  GI50: 3.87 µM (inactive)
SK-MEL-5
  GI50: 2.16 µM (inactive)
TK-10
  GI50: 1.54 µM (inactive)
NCI-H23
  GI50: 2.5 µM (inactive)
DMS-114
  GI50: 3.18 µM (inactive)
OVCAR-4
  GI50: 3.01 µM (inactive)
DMS-273
  GI50: 3.53 µM (inactive)
Malme-3M
  GI50: 2.48 µM (inactive)
MOLT-4
  GI50: 2.26 µM (inactive)
DLD-1
  GI50: 4.32 µM (inactive)
786-0
  GI50: 3.99 µM (inactive)
UACC-257
  GI50: 2.01 µM (inactive)
SK-MEL-28
  GI50: 4.37 µM (inactive)

## [N-]=[N+]=NC1CC(n2cc(COCC(F)(F)F)c(=O)[nH]c2=O)OC1CO (centres undefined)
SNB-78
  GI50: > 100 µM (inactive)
SF-295
  GI50: > 100 µM (inactive)
SK-MEL-5
  GI50: > 100 µM (inactive)
TK-10
  GI50: > 100 µM (inactive)
NCI-H23
  GI50: > 100 µM (inactive)
DMS-114
  GI50: > 100 µM (inactive)
OVCAR-4
  GI50: > 100 µM (inactive)
DMS-273
  GI50: > 100 µM (inactive)
Malme-3M
  GI50: > 100 µM (inactive)
MOLT-4
  GI50: > 100 µM (inactive)
DLD-1
  GI50: > 100 µM (inactive)
786-0
  GI50: > 100 µM (inactive)
UACC-257
  GI50: > 100 µM (inactive)
SK-MEL-28
  GI50: > 100 µM (inactive)

## C=C1c2[nH]c3ccccc3c2CC(C(=O)O)N1C(O)c1ccc(S(=O)(=O)O)cc1 (centres undefined)
SNB-78
  GI50: > 100 µM (inactive)
SF-295
  GI50: > 100 µM (inactive)
SK-MEL-5
  GI50: > 100 µM (inactive)
TK-10
  GI50: > 100 µM (inactive)
NCI-H23
  GI50: > 100 µM (inactive)
DMS-114
  GI50: > 100 µM (inactive)
OVCAR-4
  GI50: > 100 µM (inactive)
DMS-273
  GI50: > 100 µM (inactive)
Malme-3M
  GI50: > 100 µM (inactive)
MOLT-4
  GI50: > 100 µM (inactive)
DLD-1
  GI50: > 100 µM (inactive)
786-0
  GI50: > 100 µM (inactive)
UACC-257
  GI50: > 100 µM (inactive)
SK-MEL-28
  GI50: > 100 µM (inactive)

## Cc1ccccc1NC(=O)CC(=O)n1nc(-c2ccccc2)c(/N=N/c2ccc([N+](=O)[O-])cc2)c1-c1ccccc1
SNB-78
  GI50: 26.9 µM (inactive)
SF-295
  GI50: 17.4 µM (inactive)
SK-MEL-5
  GI50: 13 µM (inactive)
TK-10
  GI50: 37.1 µM (inactive)
NCI-H23
  GI50: 21.3 µM (inactive)
DMS-114
  GI50: 10.6 µM (inactive)
OVCAR-4
  GI50: 23.6 µM (inactive)
DMS-273
  GI50: 21 µM (inactive)
Malme-3M
  GI50: 23.8 µM (inactive)
MOLT-4
  GI50: 16.1 µM (inactive)
DLD-1
  GI50: 18.7 µM (inactive)
786-0
  GI50: 22.1 µM (inactive)
UACC-257
  GI50: 19.9 µM (inactive)
SK-MEL-28
  GI50: 27.3 µM (inactive)

## CC1=C(C(=O)NCc2ccccc2)C(c2ccccc2C)C(C(=O)NCc2ccccc2)=C(C)N1
SNB-78
  GI50: 33.6 µM (inactive)
SF-295
  GI50: 29.7 µM (inactive)
SK-MEL-5
  GI50: 35.5 µM (inactive)
TK-10
  GI50: 41.7 µM (inactive)
NCI-H23
  GI50: 33.1 µM (inactive)
DMS-114
  GI50: 29.6 µM (inactive)
OVCAR-4
  GI50: 27.2 µM (inactive)
DMS-273
  GI50: 27.5 µM (inactive)
Malme-3M
  GI50: 72.6 µM (inactive)
MOLT-4
  GI50: 27.1 µM (inactive)
DLD-1
  GI50: 20.9 µM (inactive)
786-0
  GI50: 25.1 µM (inactive)
UACC-257
  GI50: 10.7 µM (inactive)
SK-MEL-28
  GI50: 27.6 µM (inactive)

## COc1ccc2[nH]c3c(O)nncc3c2c1
SNB-78
  GI50: > 100 µM (inactive)
SF-295
  GI50: > 100 µM (inactive)
SK-MEL-5
  GI50: > 100 µM (inactive)
TK-10
  GI50: > 100 µM (inactive)
NCI-H23
  GI50: > 100 µM (inactive)
DMS-114
  GI50: > 100 µM (inactive)
OVCAR-4
  GI50: > 100 µM (inactive)
DMS-273
  GI50: > 100 µM (inactive)
Malme-3M
  GI50: > 100 µM (inactive)
MOLT-4
  GI50: > 100 µM (inactive)
DLD-1
  GI50: > 100 µM (inactive)
786-0
  GI50: 90.8 µM (inactive)
UACC-257
  GI50: > 100 µM (inactive)
SK-MEL-28
  GI50: > 100 µM (inactive)
